In ChEMBL document CHEMBL1201862, “PubChem BioAssay data set” (2004):
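Each compound was tested at five concentrations against cells in 96-well plates for 48 hours. The concentration for 50% growth inhibition is given as GI50.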 Calls of active or inactive are those of the source. No stated cut-off is given here; in the data, active = GI50 up to about 1.1 µM and inactive = higher.

Tests used:
Test in all cases: DTP human tumour cell line panel, 48 h
IGROV-1 = test system: IGROV-1
UACC-62 = test system: UACC-62
HOP-92 = test system: HOP-92
SK-MEL-2 = test system: SK-MEL-2
SF-295 = test system: SF-295
U-251 = test system: U-251
SK-MEL-5 = test system: SK-MEL-5
SR = test system: SR
OVCAR-5 = test system: OVCAR-5
NCI-H460 = test system: NCI-H460
OVCAR-4 = test system: OVCAR-4
A498 = test system: A498
Malme-3M = test system: Malme-3M
K562 = test system: K562
UO-31 = test system: UO-31
SF-539 = test system: SF-539
LOX IMVI = test system: LOX IMVI
HCC 2998 = test system: HCC 2998
DU-145 = test system: DU-145
PC-3 = test system: PC-3

| Structure (SMILES) | GI50 (IGROV-1) | GI50 (UACC-62) | GI50 (HOP-92) | GI50 (SK-MEL-2) | GI50 (SF-295) | GI50 (U-251) | GI50 (SK-MEL-5) | GI50 (SR) | GI50 (OVCAR-5) | GI50 (NCI-H460) | GI50 (OVCAR-4) | GI50 (A498) | GI50 (Malme-3M) | GI50 (K562) | GI50 (UO-31) | GI50 (SF-539) | GI50 (LOX IMVI) | GI50 (HCC 2998) | GI50 (DU-145) | GI50 (PC-3) |
| --- | --- | --- | --- | --- | --- | --- | --- | --- | --- | --- | --- | --- | --- | --- | --- | --- | --- | --- | --- | --- |
| O=c1cc2n(c(=O)[nH]1)C1OC(C(O)C1O)[C@H]2CCO (stereo partly specified) | > 100 µM (inactive) | > 100 µM (inactive) | > 100 µM (inactive) | > 100 µM (inactive) | > 100 µM (inactive) | > 100 µM (inactive) | > 100 µM (inactive) | > 100 µM (inactive) | > 100 µM (inactive) | > 100 µM (inactive) | > 100 µM (inactive) | > 100 µM (inactive) | > 100 µM (inactive) | > 100 µM (inactive) | > 100 µM (inactive) | > 100 µM (inactive) | > 100 µM (inactive) | – | – | – |
| COC(=O)CCCC(=O)NC1=C(Nc2ccccc2)C(=O)c2ccccc2C1=O | 16 µM (inactive) | 3.27 µM (inactive) | 21.8 µM (inactive) | 18.1 µM (inactive) | 17.5 µM (inactive) | 14.4 µM (inactive) | – | 30.2 µM (inactive) | 16.8 µM (inactive) | 16.6 µM (inactive) | 19.3 µM (inactive) | 16.9 µM (inactive) | 3.56 µM (inactive) | 19.2 µM (inactive) | 21.2 µM (inactive) | 18.6 µM (inactive) | 17.4 µM (inactive) | 14.7 µM (inactive) | 15.2 µM (inactive) | – |
| [O-][S+]1Cc2ccccc2CSS1 (stereo unspecified) | 29.2 µM (inactive) | 13 µM (inactive) | 15.6 µM (inactive) | – | 18.7 µM (inactive) | 14.3 µM (inactive) | 13.5 µM (inactive) | 13.9 µM (inactive) | 16.3 µM (inactive) | 16.8 µM (inactive) | 16.6 µM (inactive) | 56.5 µM (inactive) | 13 µM (inactive) | 12.3 µM (inactive) | 17.9 µM (inactive) | 14.5 µM (inactive) | 3.96 µM (inactive) | 26.1 µM (inactive) | – | – |
| Nc1cccc2c1-c1c(cccc1[N+](=O)[O-])C2=O | > 100 µM (inactive) | > 100 µM (inactive) | > 100 µM (inactive) | – | > 100 µM (inactive) | > 100 µM (inactive) | > 100 µM (inactive) | > 100 µM (inactive) | > 100 µM (inactive) | > 100 µM (inactive) | > 100 µM (inactive) | > 100 µM (inactive) | > 100 µM (inactive) | > 100 µM (inactive) | 0.108 µM (active) | > 100 µM (inactive) | > 100 µM (inactive) | > 100 µM (inactive) | – | – |
| N#CC(/C(=N/NC(N)=S)C(=O)Nc1cccc(Cl)c1)c1ccccc1 (stereo unspecified) | > 100 µM (inactive) | > 100 µM (inactive) | > 100 µM (inactive) | > 100 µM (inactive) | > 100 µM (inactive) | > 100 µM (inactive) | > 100 µM (inactive) | > 100 µM (inactive) | > 100 µM (inactive) | > 100 µM (inactive) | > 100 µM (inactive) | > 100 µM (inactive) | > 100 µM (inactive) | > 100 µM (inactive) | > 100 µM (inactive) | > 100 µM (inactive) | – | > 100 µM (inactive) | – | – |
| CCOC(=O)/C=C1/Nc2cc(F)c(F)cc2NC1=O | – | > 100 µM (inactive) | > 100 µM (inactive) | > 100 µM (inactive) | > 100 µM (inactive) | > 100 µM (inactive) | > 100 µM (inactive) | – | > 100 µM (inactive) | > 100 µM (inactive) | > 100 µM (inactive) | – | > 100 µM (inactive) | > 100 µM (inactive) | > 100 µM (inactive) | > 100 µM (inactive) | > 100 µM (inactive) | > 100 µM (inactive) | > 100 µM (inactive) | > 100 µM (inactive) |
| CCN(CC)CC(=O)/C=C/c1ccc(C)cc1 | 20.8 µM (inactive) | 17.3 µM (inactive) | 30.1 µM (inactive) | – | 32 µM (inactive) | 16.5 µM (inactive) | 17.8 µM (inactive) | 27.7 µM (inactive) | 42.3 µM (inactive) | 20.6 µM (inactive) | 15.8 µM (inactive) | 56 µM (inactive) | 19.5 µM (inactive) | 35.6 µM (inactive) | 20.1 µM (inactive) | 20.7 µM (inactive) | 18.5 µM (inactive) | 17.9 µM (inactive) | – | – |
| COc1ccc(C2(CN(C)C)COc3cc(OC)c(OC)cc3C2=O)cc1OC (stereo unspecified) | > 100 µM (inactive) | 38.7 µM (inactive) | 79.3 µM (inactive) | – | 92.9 µM (inactive) | 45.9 µM (inactive) | 24.1 µM (inactive) | 30.6 µM (inactive) | – | 33.9 µM (inactive) | 34.6 µM (inactive) | 74.8 µM (inactive) | > 100 µM (inactive) | 31.6 µM (inactive) | 44.8 µM (inactive) | 39.9 µM (inactive) | 16.6 µM (inactive) | > 100 µM (inactive) | – | – |
| CCN(CC)C(=O)Cn1c2c(c3ccccc31)CCCC2 | > 100 µM (inactive) | 99.8 µM (inactive) | > 100 µM (inactive) | > 100 µM (inactive) | 49.8 µM (inactive) | – | 64 µM (inactive) | 49.9 µM (inactive) | > 100 µM (inactive) | > 100 µM (inactive) | > 10 µM (inactive) | > 100 µM (inactive) | > 100 µM (inactive) | 68.4 µM (inactive) | 23.2 µM (inactive) | 47.2 µM (inactive) | > 100 µM (inactive) | > 100 µM (inactive) | – | 68.5 µM (inactive) |
| O=C1C(=Cc2ccc(O)cc2)N=C(c2ccccc2)N1n1c(-c2ccccc2)nc2ccccc2c1=O | > 100 µM (inactive) | 97.1 µM (inactive) | – | – | > 100 µM (inactive) | – | > 100 µM (inactive) | – | – | – | – | – | > 100 µM (inactive) | > 10 µM (inactive) | > 100 µM (inactive) | > 100 µM (inactive) | > 100 µM (inactive) | > 100 µM (inactive) | > 100 µM (inactive) | 34.8 µM (inactive) |
| CCCCCCCCc1cc2c(O)c(c1)Cc1cc(CCCCCCCC)cc(c1O)Cc1cc(CCCCCCCC)cc(c1O)Cc1cc(CCCCCCCC)cc(c1O)Cc1cc(CCCCCCCC)cc(c1O)Cc1cc(CCCCCCCC)cc(c1O)C2 | > 100 µM (inactive) | > 100 µM (inactive) | > 100 µM (inactive) | > 100 µM (inactive) | > 100 µM (inactive) | > 100 µM (inactive) | – | > 100 µM (inactive) | > 100 µM (inactive) | > 100 µM (inactive) | – | > 100 µM (inactive) | > 100 µM (inactive) | > 100 µM (inactive) | > 100 µM (inactive) | > 100 µM (inactive) | > 100 µM (inactive) | > 100 µM (inactive) | – | – |
| COC(=O)[C@@]12CC3CN(Cc4c1[nH]c1ccccc41)C2CC3=O | > 100 µM (inactive) | > 100 µM (inactive) | 26.7 µM (inactive) | > 100 µM (inactive) | > 100 µM (inactive) | > 100 µM (inactive) | – | – | > 100 µM (inactive) | > 100 µM (inactive) | > 100 µM (inactive) | – | > 100 µM (inactive) | > 100 µM (inactive) | – | > 100 µM (inactive) | > 100 µM (inactive) | > 100 µM (inactive) | > 100 µM (inactive) | > 100 µM (inactive) |
| CC(C)C1C(=O)NC(CO)Cc2c[nH]c3c(C(c4c[nH]c5ccccc45)C(O)CO)ccc(c23)N1C (stereo unspecified) | > 100 µM (inactive) | 79.8 µM (inactive) | 0.612 µM (active) | > 100 µM (inactive) | 37.2 µM (inactive) | – | 16.4 µM (inactive) | 21.7 µM (inactive) | – | 5.02 µM (inactive) | > 100 µM (inactive) | 14.5 µM (inactive) | – | 4.19 µM (inactive) | > 100 µM (inactive) | > 100 µM (inactive) | > 100 µM (inactive) | 3.38 µM (inactive) | – | – |
| O=C1CC[C@@H](NC(=O)Cc2ccccc2)C(=O)N1 | > 100 µM (inactive) | > 100 µM (inactive) | > 100 µM (inactive) | > 100 µM (inactive) | > 100 µM (inactive) | > 100 µM (inactive) | > 100 µM (inactive) | > 100 µM (inactive) | > 100 µM (inactive) | > 100 µM (inactive) | > 100 µM (inactive) | > 100 µM (inactive) | > 100 µM (inactive) | > 100 µM (inactive) | > 100 µM (inactive) | > 100 µM (inactive) | > 100 µM (inactive) | > 100 µM (inactive) | – | – |
| CCc1cccc(C)c1NC(=O)CCc1nnc(SC)o1 | > 100 µM (inactive) | > 100 µM (inactive) | > 100 µM (inactive) | > 100 µM (inactive) | > 100 µM (inactive) | > 100 µM (inactive) | > 100 µM (inactive) | 0.622 µM (active) | > 100 µM (inactive) | > 100 µM (inactive) | > 100 µM (inactive) | > 100 µM (inactive) | > 100 µM (inactive) | > 100 µM (inactive) | > 100 µM (inactive) | > 100 µM (inactive) | > 100 µM (inactive) | > 100 µM (inactive) | – | – |
| COC1=CC(=O)C2C(C1=O)C(c1ccccc1)[C@H]2C (stereo partly specified) | > 100 µM (inactive) | > 100 µM (inactive) | 25.7 µM (inactive) | > 100 µM (inactive) | > 100 µM (inactive) | > 100 µM (inactive) | 80 µM (inactive) | 31.6 µM (inactive) | > 100 µM (inactive) | > 100 µM (inactive) | – | > 100 µM (inactive) | 26.1 µM (inactive) | 34.4 µM (inactive) | > 100 µM (inactive) | > 100 µM (inactive) | > 100 µM (inactive) | > 100 µM (inactive) | – | – |
